“Also recorded” adds a separate entry of the source.
How the values were obtained:
Caco-2 = experiment: Cellular uptake of [3H][Dmt1]DALDA into cell monolayers; assay type: cell-based, human
Experimental: (§1) The cellular uptake of [^3H][Dmt^1]DALDA was studied using a human intestinal epithelial cell line (Caco-2), and confirmed with SH-SY5Y (human neuroblastoma cell), HEK293 (human embryonic kidney cell) and CRFK cells (kidney epithelial cell). Monolayers of cells were grown on 12-well plates (5×10^5 cells/well) coated with collagen for 3 days. On day 4, cells were washed twice with pre-wanned HBSS, and then incubated with 0.2 ml of HBSS containing either 250 nM [^3H][Dmt^1]DALDA at 37° C. or 4° C. for various times up to 1 h.
In a separate experiment, cells were incubated with a range of [Dmt^1]DALDA concentrations (1 μM-3 mM) for 1 h at 37° C. At the end of the incubation period, cells were washed 4 times with HBSS, and 0.2 ml of 0.1N NaOH with 1% SDS was added to each well. The cell contents were then transferred to scintillation vials and radioactivity counted. To distinguish between internalized radioactivity from surface-associated radioactivity, an acid-wash step was included. Prior to cell lysis, cells were incubated with 0.2 ml of 0.2 M acetic acid/0.05 M NaCl for 5 min on ice.

HEK293 = experiment: Cellular uptake of [3H][Dmt1]DALDA, confirmation; assay type: cell-based, human
Experimental: as §1

SH-SY5Y = experiment: Cellular uptake of [3H][Dmt1]DALDA, confirmation; assay type: cell-based, human
Experimental: as §1

CRFK cells = experiment: Cellular uptake of [3H][Dmt1]DALDA, confirmation; assay type: cell-based
Experimental: as §1

[1] = system: isolated mouse liver mitochondria; experiment: Uptake into isolated mitochondria (fluorescence quenching, radioactivity in pellet); assay type: in vitro ADME
Experimental: (FIG. 1A) Mitochondrial uptake of SS-19 was determined using fluorescence spectrophotometry (ex/em=320/420 nm). […] Pretreatment of mitochondria with FCCP (1.5 μM) reduced quenching by <20% (black line). […] Uptake was stopped by centrifugation (16000×g) for 5 min at 4° C., and radioactivity determined in the pellet. […] Data are shown as mean±s.e.; n=3. *, P<0.05 by Student's t-test. […] Black line, TMRM; red line, SS-19.
To isolate mitochondria from mouse liver, mice were sacrificed by decapitation. The liver was removed and rapidly placed into chilled liver homogenization medium. The liver was finely minced using scissors and then homogenized by hand using a glass homogenizer.
The homogenate was centrifuged for 10 min at 1000×g at 4° C. The supernatant was aspirated and transferred to polycarbonate tubes and centrifuged again for 10 min. at 3000×g, 4° C. The resulting supernatant was removed, and the fatty lipids on the side-wall of the tube were carefully wiped off.
The pellet was resuspended in liver homogenate medium and the homogenization repeated twice. The final purified mitochondrial pellet was resuspended in medium. Protein concentration in the mitochondrial preparation was determined by the Bradford procedure.
Approximately 1.5 mg mitochondria in 400 μl buffer was incubated with [^3H][Dmt^1]DALDA for 5-30 min at 37° C. The mitochondria were then centrifuged down and the amount of radioactivity determined in the mitochondrial fraction and buffer fraction. […] Thus [Dmt^1]DALDA is concentrated in mitochondria.
Thus uptake of [Dmt^1, AtnDap^4]DALDA was not potential-dependent.
To confirm that the mitochondrial targeting was not an artifact of the fluorophore, we also examined mitochondrial uptake of [^3H][Dmt^1]DALDA. Isolated mitochondria were incubated with [^3H][Dmt^1]DALDA and radioactivity determined in the mitochondrial pellet and supernatant.
We next examined the effect of mitochondrial swelling on the accumulation of [Dmt^1, AtnDap^4]DALDA in mitochondria by using alamethicin to induce swelling and rupture of the outer membrane. […] Thus, [Dmt^1]DALDA is associated with mitochondrial membranes.

[2] = Estimated concentration in isolated perfused guinea pig hearts; settings: coronary perfusate 0.1 μM
[3] = system: isolated mouse liver mitochondria; experiment: Mitochondrial respiration (oxygen consumption); assay type: biochemical; settings: 100 μM
[4] = system: mitochondrial permeability transition (MPT) in isolated mitochondria; experiment: Mitochondrial membrane potential and MPT measured with TMRM; assay type: biochemical, mouse; settings: for mitochondrial potential / MPT on addition of peptide alone: 200 μM, TMRM; for tolerance of mitochondria to cumulative Ca2+ additions prior to MPT: 50 and 100 μM
Experimental: In addition to having no direct effect on mitochondrial potential, [Dmt^1]DALDA was able to protect against MPT induced by Ca^2+ overload.
3-Nitropropionic acid (3NP) is an irreversible inhibitor of succinate dehydrogenase in complex II of the electron transport chain. Addition of 3NP (1 mM) to isolated mitochondria caused dissipation of mitochondrial potential and onset of MPT (FIG. 2C).

Caco-2 cells = experiment: 3NP-induced mitochondrial depolarization in cells (TMRM, LSCM); assay type: cell-based, human; settings: 3NP 10 mM, peptide 0.1 μM, 4 h
Source text: In control cells, the mitochondria are clearly visualized as fine streaks throughout the cytoplasm.

isolated mitochondria [5] = experiment: Mitochondrial swelling (absorbance 540 nm or light scattering 570 nm); assay type: biochemical, mouse
Experimental: (§2) MPT pore opening results in mitochondrial swelling. We examined the effects of [Dmt^1]DALDA on mitochondrial swelling by measuring reduction in absorbance at 540 nm (A540). The mitochondrial suspension was then centrifuged and cytochrome c in the mitochondrial pellet and supernatant determined by a commercially-available ELISA kit.
(§3) The methods for study are as described above for SS-02. In this example, mitochondrial swelling was measured using light scattering monitored at 570 nm.

isolated mitochondria [6] = experiment: Cytochrome c release from isolated mitochondria (ELISA); assay type: biochemical, mouse; settings: Ca2+ overload
Experimental: as §2, §3

[7] = system: isolated perfused guinea pig heart; experiment: Ischemia-reperfusion myocardial stunning in isolated perfused heart (Langendorff); settings: 100 nM, 30 min global ischemia
Experimental: Guinea pig hearts were rapidly isolated, and the aorta was cannulated in situ and perfused in a retrograde fashion with an oxygenated Krebs-Henseleit solution (pH 7.4) at 34° C. The heart was then excised, mounted on a modified Langendorff perfusion apparatus, and perfused at constant pressure (40 cm H2O). Contractile force was measured with a small hook inserted into the apex of the left ventricle and the silk ligature tightly connected to a force-displacement transducer. Coronary flow was measured by timed collection of pulmonary artery effluent.
Reperfusion was carried out with the same solution used prior to ischemia.

[8] = system: isolated guinea pig hearts; experiment: Organ preservation: peptide in cardioplegic solution, prolonged ischemia of isolated heart; settings: in St. Thomas cardioplegic solution 3 min, 90 min ischemia, 60 min reperfusion; listed as [Dmt^1]DALDA
Experimental: We examined whether [Dmt^1]DALDA prolongs survival of organs. In this study, [Dmt^1]DALDA was added to a commonly used cardioplegic solution (St. Thomas) to determine whether [[Dmt^1]DALDA enhances survival of the heart after prolonged ischemia (model of ex vivo organ survival).
Isolated guinea pig hearts were perfused in a retrograde fashion with an oxygenated Krebs-Henseleit solution at 34° C. After 30 min. of stabilization, the hearts were perfused with a cardioplegic solution CPS (St. Tohomas) with or without [Dmt^1]DALDA at 100 nM for 3 min. Global ischemia was then induced by complete interruption of coronary perfusion for 90 min. Reperfusion was subsequently carried out for 60 min. with oxygenated Krebs-Henseleit solution. Contractile force, heart rate and coronary flow were monitored continuously throughout the experiment.

[9] = system: several mammalian cell types; settings: energy-independent manner; cited from earlier work

2′,6′-dimethyltyrosine-D-Arg-Phe-Lys-NH2 [SS-02]
time at which [3H][Dmt1]DALDA was first observed in cell lysate (Caco-2; 250 nM, Caco-2): 5 min
time to steady state levels in cell lysate (Caco-2; 250 nM, Caco-2): ≤ 30 min
total amount recovered in the cell lysate, of the total drug (Caco-2; after 1 h incubation): about 1%
uptake at 4° C. compared to 37° C. (Caco-2; by 45 min): 76.5%
uptake at 4° C. compared to 37° C. (Caco-2; by 1 h): 86.3%
internalization (HEK293): observed
internalization (SH-SY5Y): observed
internalization (CRFK cells): observed
decrease of radioactivity associated with mitochondrial pellet by FCCP ([1]; 37° C., 2 min): ~20%
amount of radioactivity in the pellet over time ([1]; from 2 min to 8 min): did not change
Concentration of [Dmt1]DALDA in mitochondria [2]: 1000 µM
Concentration of [Dmt1]DALDA in myocyte [2]: 5 µM
oxygen consumption during state 3 or state 4 [3]: did not alter
mitochondrial potential / MPT on addition of peptide alone [4]: did not alter mitochondrial potential
mitochondrial potential / MPT on addition of peptide alone ([4]; listed as [Dmt^1]DALDA): did not cause mitochondrial depolarization or MPT
onset of MPT induced by 3NP ([4]; 1 mM 3NP, 0.5, 5, 50 μM peptide): dose-dependently delayed
tolerance of mitochondria to cumulative Ca2+ additions prior to MPT [4]: increased mitochondrial tolerance
tolerance of mitochondria to cumulative Ca2+ additions prior to MPT ([4]; listed as [Dmt^1]DALDA): dose-dependently increased
MPT induced by Ca2+ overload ([4]; pretreatment 10 μM): prevented onset of MPT
mitochondrial depolarization caused by 3NP in cells (Caco-2 cells): protected against mitochondrial depolarization
mitochondrial swelling induced by Ca2+ (isolated mitochondria [5]; 200 μM Ca2+, absorbance at 540 nm): inhibited swelling; also recorded: dose dependently inhibited
mitochondrial swelling induced by MPP+ (isolated mitochondria [5]; MPP+ 300 μM): prevented mitochondrial swelling; also recorded: inhibited mitochondrial swelling
Ca2+-induced release of cytochrome c (isolated mitochondria [6]): inhibited
myocardial contractile force during ischemia-reperfusion [7]: tolerated ischemia much better than buffer-treated hearts; also recorded: protects myocardial contractile force
contractile function after prolonged ischemia [8]: significantly enhanced; also recorded: significantly improved
penetration of the plasma membrane [9]: readily penetrates the plasma membrane

Reference: patent publication US8404646B2, “Methods for preventing or treating mitochondrial permeability transition” (Cornell Research Foundation, Inc., priority 2003, dated 2013)
